Data on one compound can be found in US20230028403A1, “METHOD WHICH BRINGS BENEFITS TO HEALTH AND/OR GROWTH OF USEFUL PLANTS” (ISHIHARA SANGYO KAISHA, LTD., priority 2019, published 2023).

Common to all, as to type: in vivo
Data set [1] has as its system field corn (variety: PIONEERDENT 30N34). The data set can be described thus: Test Example 4: above-ground height of field corn, pot, 300 L/ha. The note with it: dose 120 g/ha; (c) polyoxyethylene hydrogenated castor oil 0.08 w/v %; 14th day. On the procedure: Upland field soil was put into a […] hectare pot, and seeds of field corn (variety: PIONEERDENT 30N34, variety highly susceptible to component (a)) were sown. When the field corn reached 3.5 to 4.0 leaf stage, an oil-based suspension containing the component (a) and the component (c) (polyoxyethylene hydrogenated castor oil), and a wettable powder containing the component (b) were diluted with water in an amount corresponding to 300 L/ha to prepare spray solutions. The concentration of the component (c) in the spray solution was 0.08 weight/volume percent. The spray solutions were applied to foliage with a small sprayer. On the 14th day after the foliar application, the above-ground height of the field corn was measured, and the height ratio was calculated in accordance with the following formula. The above-ground height in the untreated plot was 75.8 cm.
(§1) Height ratio (%)=(above-ground height in the treated plot)/(above-ground height in the untreated plot)×100

The test system is the same in data set [2]. Nature of the data set: Test Example 5: above-ground height of field corn, agricultural field, 300 L/ha. The note with it: dose 30 g/ha; (c) polyoxyethylene hydrogenated castor oil 0.020 w/v %; 14th day. The protocol: In an agricultural field having seeds of field corn (variety: PIONEERDENT 30N34, variety highly susceptible to component (a)) sown, when the field corn reached 3.1 to 3.5 leaf stage, an oil-based suspension containing the component (a) and the component (c) (polyoxyethylene hydrogenated castor oil), and a wettable powder containing the component (b) were diluted with water in an amount corresponding to 300 L/ha to prepare spray solutions, which were applied to foliage with a Teejet 80015VS nozzle. The concentration of the component (c) in the spray solution was 0.020 weight/volume percent. On the 14th day after the foliar application, the above-ground height of the field corn was measured, and the height ratio was calculated in accordance with the following formula. The above-ground height in the untreated plot was 76.7 cm.
Height ratio (%) =(above-ground height in the treated plot)/(above-ground height in the untreated plot)×100

Data set [3] concerns field corn (variety: SNOWDENT SH2933). The data set can be described thus: Test Example 6: above-ground height of field corn, pot, 300 L/ha. As to conditions: dose 30 g/ha; (c) sodium polyoxyethylene alkyl ether phosphate 0.033 w/v %; 14th day. On the procedure:
On the 14th day after the foliar application, the above-ground height of the field corn was measured, and the height ratio was calculated in accordance with the following formula.
Height ratio (%)=(above-ground height in the treated plot)/(above-ground height in the untreated plot) ×100

Data set [4] has the same test system. The data set can be described thus: Test Example 7: above-ground height of field corn, agricultural field, 200 L/ha. The note with it: 27th day. On the procedure:
On the 27th day after the foliar application, the above-ground height of the field corn was measured, and the height ratio was calculated in accordance with the following formula.
as §1

For data set [5] the test system is unchanged. The data set can be described thus: Test Example 8: above-ground height of field corn, agricultural field, 500 L/ha. As to conditions: 28th day. On the procedure:
On the 28th day after the foliar application , the above-ground height of the field corn was measured, and the height ratio was calculated in accordance with the following formula.
as §1

Setting [6] is: dose 20 g/ha, (c) polyoxyethylene hydrogenated castor oil 0.02 w/v %.
The mark [7] stands for this setting: dose 30 g/ha, (c) polyoxyethylene hydrogenated castor oil 0.03 w/v %.
[8] abbreviates: dose 40 g/ha, (c) polyoxyethylene hydrogenated castor oil 0.04 w/v %.
[9] abbreviates: dose 60 g/ha, (c) polyoxyethylene hydrogenated castor oil 0.06 w/v %.
Setting [10] is: dose 80 g/ha, (c) polyoxyethylene hydrogenated castor oil 0.08 w/v %.
[11] abbreviates: dose 120 g/ha, (c) polyoxyethylene hydrogenated castor oil 0.12 w/v %.
Where [12] appears, read: dose 60 g/ha, (c) sodium polyoxyethylene alkyl ether phosphate 0.04 w/v %.
Setting [13] is: dose 90 g/ha, (c) sodium polyoxyethylene alkyl ether phosphate 0.06 w/v %.
Where [14] appears, read: dose 120 g/ha, (c) sodium polyoxyethylene alkyl ether phosphate 0.08 w/v %.

With `COc1cc(OC)nc(NC(=O)NS(=O)(=O)c2ncccc2C(=O)N(C)C)n1` [Component (a), nicosulfuron], the Above-ground height in data set [1] was found to be 41.3 cm; in data set [2] it was 66.6 cm; in data set [3], 46.8 cm; in data set [4] (setting [6]), 125.5 cm; in data set [4] (setting [7]) it was 124.0 cm; in data set [4] (setting [8]), 129.9 cm. In addition, the Above-ground height in data set [4] (setting [9]) stood at 122.3 cm; in data set [4] (setting [10]), 110.7 cm; in data set [4] (setting [11]), 107.4 cm; in data set [5] (setting [12]), 107.2 cm; in data set [5] (setting [13]), 88.6 cm; in data set [5] (setting [14]) it was 86.3 cm. The Height ratio worked out at 55% in data set [1]; 87% in data set [2]; 75% in data set [3]; 86% in data set [4] (setting [6]); 84% in data set [4] (setting [7]); 88% in data set [4] (setting [8]). Also, the Height ratio in data set [4] (setting [9]) was found to be 83%; in data set [4] (setting [10]) it was 75%; in data set [4] (setting [11]), 73%; in data set [5] (setting [12]) it was 81%; in data set [5] (setting [13]), 67%; in data set [5] (setting [14]), 65%.
